pIC50: −log10 of the molar value. In brackets after ≈: the same amount, converted by molar mass.
Columns and labels:
Type in all cases: functional, organism-based
[1] = tested on: Mycobacterium tuberculosis; assay: Antitubercular activity against rifampicin-resistant Mycobacterium tuberculosis H37Rv RIF-R2 ATCC 35828 after 5 days; conditions: H37Rv RIF-R2 ATCC 35828, 120 h
[2] = tested on: Mycobacterium tuberculosis; assay: Antitubercular activity against fluoroquinolone-resistant Mycobacterium tuberculosis H37Rv harboring gyrB D94N mutant after 5 days
[3] = tested on: Mycobacterium tuberculosis; assay: Antitubercular activity against isoniazid-resistant Mycobacterium tuberculosis H37Rv INH-R1 harboring katG Y155 mutant after 5 days
[4] = tested on: Mycobacterium tuberculosis; assay: Antitubercular activity against isoniazid-resistant Mycobacterium tuberculosis INH-R2 ATCC 35822 after 5 days; conditions: INH-R2 ATCC 35822, 120 h
[5] = tested on: Mycobacterium tuberculosis; assay: Antitubercular activity against rifampicin-resistant Mycobacterium tuberculosis H37Rv RIF-R1 harboring rpoB S522L mutant after 5 days

Row | Compound | MIC [1] [µM] | MIC [2] [µM] | MIC [3] [µM] | MIC [4] [µM] | MIC [5] [µM] | pIC50 [1] | IC90 [1] [µM] | pIC50 [2] | IC90 [2] [µM] | pIC50 [3] | IC90 [3] [µM] | pIC50 [4] | IC90 [4] [µM] | pIC50 [5] | IC90 [5] [µM]
1 | O=C(NCCCCn1cnc([N+](=O)[O-])n1)c1nc2ccccc2s1 | 7.9 (≈ 2.74 µg/mL) | 8.2 (≈ 2.84 µg/mL) | 11.1 (≈ 3.84 µg/mL) | 7.9 (≈ 2.74 µg/mL) | 8.9 (≈ 3.08 µg/mL) | – | – | – | – | – | – | – | – | – | –
2 | O=C(Cn1cnc([N+](=O)[O-])n1)Nc1ccc(N2CCCCC2)cc1 | 51 (≈ 16.8 µg/mL) | 50 (≈ 16.5 µg/mL) | 54 (≈ 17.8 µg/mL) | 48 (≈ 15.9 µg/mL) | 36 (≈ 11.9 µg/mL) | 4.44 | 49 | 4.49 | 47 | 4.47 | 53 | 4.52 | 44 | 4.60 | 41
3 | O=C(CCn1cnc([N+](=O)[O-])n1)Nc1cccc(OCc2ccccc2)c1 | 5.6 (≈ 2.06 µg/mL) | 6 (≈ 2.2 µg/mL) | 6.2 (≈ 2.28 µg/mL) | 5.7 (≈ 2.09 µg/mL) | 3.6 (≈ 1.32 µg/mL) | 5.39 | 5.2 | 5.47 | 6.2 | 5.35 | 5.9 | 5.49 | 5.6 | 5.66 | 3.7
4 | O=C(Cn1cnc([N+](=O)[O-])n1)Nc1nc(-c2ccc(F)c(F)c2)cs1 | 45 (≈ 16.5 µg/mL) | 48 (≈ 17.6 µg/mL) | 50 (≈ 18.3 µg/mL) | 49 (≈ 17.9 µg/mL) | 39 (≈ 14.3 µg/mL) | 4.52 | 38 | 4.51 | 44 | 4.49 | 47 | 4.51 | 45 | 4.60 | 40
5 | O=C(Cn1cnc([N+](=O)[O-])n1)N1CCN(C(c2ccccc2)c2ccc(Cl)cc2)CC1 (stereo not given) | 71 (≈ 31.3 µg/mL) | 72 (≈ 31.7 µg/mL) | 79 (≈ 34.8 µg/mL) | 45 (≈ 19.8 µg/mL) | 42 (≈ 18.5 µg/mL) | 4.33 | 68 | 4.34 | 78 | 4.32 | 82 | 4.54 | 35 | 4.57 | 32
6 | O=C(NCCCCn1cnc([N+](=O)[O-])n1)c1sc2ccccc2c1Cl | 6.4 (≈ 2.43 µg/mL) | 7.1 (≈ 2.7 µg/mL) | 7.5 (≈ 2.85 µg/mL) | 7.3 (≈ 2.77 µg/mL) | 7.9 (≈ 3 µg/mL) | – | – | – | – | – | – | – | – | – | –
7 | O=C(CCn1cnc([N+](=O)[O-])n1)Nc1cccc(-c2ccccc2)c1 | 12 (≈ 4.05 µg/mL) | 13 (≈ 4.39 µg/mL) | 15 (≈ 5.06 µg/mL) | 10 (≈ 3.37 µg/mL) | 7.7 (≈ 2.6 µg/mL) | 5.09 | 11 | 5.17 | 14 | 5.07 | 15 | 5.21 | 11 | 5.39 | 8
8 | O=C(Cn1cnc([N+](=O)[O-])n1)Nc1ccc(Cc2ccccc2)cc1 | 48 (≈ 16.2 µg/mL) | 30 (≈ 10.1 µg/mL) | 50 (≈ 16.9 µg/mL) | 31 (≈ 10.5 µg/mL) | 44 (≈ 14.8 µg/mL) | 4.47 | 44 | 4.55 | 32 | 4.48 | 47 | 4.54 | 37 | 4.57 | 40
9 | O=C(Cn1cnc([N+](=O)[O-])n1)Nc1cccc(-c2ccccc2)c1 | 33 (≈ 10.7 µg/mL) | 28 (≈ 9.05 µg/mL) | 48 (≈ 15.5 µg/mL) | 28 (≈ 9.05 µg/mL) | 35 (≈ 11.3 µg/mL) | 4.54 | 33 | 4.54 | 39 | 4.51 | 43 | 4.59 | 31 | 4.62 | 40
10 | O=C(Cn1ccnc1[N+](=O)[O-])Nc1ccc(Oc2ccccc2)cc1 | > 200 | >200 | >200 | > 200 | >200 | 3.96 | > 200 | 4.13 | > 200 | 4.12 | 140 | 4.10 | > 200 | 4.08 | > 200
11 | O=C(Cn1cnc([N+](=O)[O-])n1)N1CCN(Cc2ccc(Cl)c(Cl)c2)CC1 | 12 (≈ 4.79 µg/mL) | 12 (≈ 4.79 µg/mL) | 14 (≈ 5.59 µg/mL) | 12 (≈ 4.79 µg/mL) | 7.7 (≈ 3.07 µg/mL) | 5.03 | 12 | 5.13 | 11 | 5.05 | 14 | 5.14 | 12 | 5.31 | 8.3
12 | O=C(CCn1cnc([N+](=O)[O-])n1)Nc1ccc(Oc2ccc(F)cc2)cc1 | 58 (≈ 21.5 µg/mL) | 46 (≈ 17.1 µg/mL) | 50 (≈ 18.6 µg/mL) | 36 (≈ 13.4 µg/mL) | 25 (≈ 9.28 µg/mL) | 4.68 | 53 | 4.59 | 48 | 4.54 | 65 | 4.72 | 37 | 4.80 | 23
